Measurements from patent US20260078103A1, “ISOQUINOLONES AS PI3K INHIBITORS” (OnKure, Inc., priority 2022, published 2026).
Where two headings read alike, the source gives them in different places.

Experiments:
Assay type in all cases: cell-based
[1] = tested on: T47D cells expressing mutant PI3Ka (H1047R); experiment: In vitro cell proliferation, T47D cells (CellTiter-Glo); details: inhibition of proliferation, read-out: Avg T-47D EC50
Summary of the method: (§1)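 Proliferation was read by CellTiter-Glo luminescence after 72 h of exposure to 10-point compound dilutions at 37 °C and 5% CO2. T47D (RPMI, 10% FBS, insulin 0.2 units/mL) and SKBR3 (McCoys 5a, 10% FBS) cells were seeded at 1,500 cells/well. EC50 was fitted from inhibition relative to DMSO and 10 uM Alpelisib.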

[2] = tested on: SKBR3 cells express WT PI3Ka; experiment: In vitro cell proliferation, SKBR3 cells (CellTiter-Glo); details: inhibition of proliferation
Summary of the method: as §1

[3] = tested on: phosphorylation of AKT (pAKT) in T47D cells expressing mutant PI3Ka (H1047R); experiment: In vitro cell pAKT (Ser473) HTRF, T47D cells; details: cellular pAKT, T47D cells, mutant PI3Ka (H1047R), 6 hours, read-out: Avg T-47D IC50
Summary of the method: (§2)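 pAKT (Ser473) was quantified by HTRF in lysates from cells exposed 6 h at 37 °C to 10-point compound series, with T47D in insulin-supplemented RPMI/10% FBS and SKBR3 in McCoy's 5a/10% FBS. Controls: 0.1% DMSO (high) and 10 uM alpelisib (low). IC50 from sigmoidal curve fitting.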

[4] = tested on: phosphorylation of AKT (pAKT) in SKBR3 cells express WT PI3Ka; experiment: In vitro cell pAKT (Ser473) HTRF, SKBR3 cells; details: cellular pAKT
Summary of the method: as §2

| SMILES | EC50 ([1]; 72 hours) | EC50 ([2]; 72 hours) | IC50 [3] | IC50 ([4]; 6 hours) | EC50 ([1]; Homo sapiens, T47D, 72 h) | EC50 ([2]; Homo sapiens, SK-BR-3, 72 h) | IC50 ([3]; Homo sapiens, T47D, 6 h) | IC50 ([4]; Homo sapiens, SK-BR-3, 6 h) |
| --- | --- | --- | --- | --- | --- | --- | --- | --- |
| C[C@@H](Nc1ccccc1C(=O)O)c1cc(F)cc2c(=O)n(C)c(-c3cnc(-c4cn(C)nc4F)c(F)c3)cc12 [Example 543] | 1 to 500 nM | > 15 µM | 1 to 500 nM | > 15 µM |  |  |  |  |
| C[C@@H](Nc1ccccc1C(=O)O)c1cc(F)cc2c(=O)n(C)c(-c3cnc(CF)s3)cc12 [Example 545] |  |  |  |  | 1 to 500 nM | > 15 µM | 1 to 500 nM | > 15 µM |
| C[C@@H](Nc1ccccc1C(=O)O)c1cc(F)cc2c(=O)n(C)c(-c3ccc(OC4CC(F)(F)C4)nc3)cc12 [Example 546] | 1 to 500 nM | > 15 µM | 1 to 500 nM | > 15 µM |  |  |  |  |
| C[C@@H](Nc1ccccc1C(=O)O)c1cc(F)cc2c(=O)n(C)c(-c3ccc(OCC(F)(F)F)nc3)c(F)c12 [Example 547] |  |  |  |  | 500 to 2000 nM | > 15 µM | 1 to 500 nM | > 15 µM |
| C[C@@H](Nc1ccccc1C(=O)O)c1cc(F)cc2c(=O)n(C)c(-c3cnc(-c4cc(F)c(F)cc4F)c(F)c3)cc12 [Example 548] | 1 to 500 nM | 2 to 15 µM | 1 to 500 nM | > 15 µM |  |  |  |  |
| Cc1cc([C@@H](C)Nc2ccccc2C(=O)O)c2cc(N3CCN(c4ccc(C)nn4)CC3)n(C)c(=O)c2c1 [Example 551] |  |  |  |  | 1 to 500 nM | 2 to 15 µM | 1 to 500 nM | 2 to 15 µM |
| C[C@@H](Nc1ccccc1C(=O)O)c1cc(F)cc2c(=O)n(C)c(Br)cc12 [Example 555] |  |  |  |  | 2000 to 15000 nM | > 15 µM | 500 to 2000 nM | > 15 µM |
| Cc1ccc(N[C@H](C)c2cc(F)cc3c(=O)n(C)c(-c4ccc(OCC(F)(F)F)nc4)cc23)c(C(=O)O)n1 [Example 557] | 500 to 2000 nM | 2 to 15 µM | 1 to 500 nM | > 15 µM |  |  |  |  |
| C[C@@H](Nc1ccccc1C(=O)O)c1cc(F)cc2c(=O)n(C)c(I)cc12 [Example 559] |  |  |  |  | 500 to 2000 nM | > 15 µM | 500 to 2000 nM | > 15 µM |
| CC(Nc1ccccc1C(=O)O)c1cc(F)cc2c(=O)n(C)c(-c3cnc(-c4ccc(F)cc4F)c(F)c3)cc12 (stereo not shown) [Example 560] | 1 to 500 nM | 2 to 15 µM | 1 to 500 nM | > 15 µM |  |  |  |  |
| CC(Nc1ccccc1C(=O)O)c1cc(F)cc2c(=O)n(C)c(-c3ccc(OC4CC4)nc3)c(F)c12 (stereo not shown) [Example 561] | 1 to 500 nM | > 15 µM | 1 to 500 nM | > 15 µM |  |  |  |  |
| Cc1ncc(F)cc1-c1ncc(-c2c(F)c3c([C@@H](C)Nc4ccccc4C(=O)O)cc(F)cc3c(=O)n2C)cc1F [Example 562] |  |  |  |  | 1 to 500 nM | > 15 µM | 1 to 500 nM | 2 to 15 µM |
| CC(Nc1ccccc1C(=O)O)c1cc(F)cc2c(=O)n(C)c(-c3cnc(OC4CC4)c(F)c3)c(F)c12 (stereo not shown) [Example 565] | 1 to 500 nM | > 15 µM | 1 to 500 nM | > 15 µM |  |  |  |  |
| C[C@@H](Nc1ccccc1C(=O)O)c1cc(F)cc2c(=O)n(C)c(-c3cnc(OCC(F)(F)F)s3)cc12 [Example 568] |  |  |  |  | 1 to 500 nM | > 15 µM | 1 to 500 nM | > 15 µM |
| C[C@@H](Nc1ccccc1C(=O)O)c1cc(F)cc2c(=O)n(C)c(-c3cnc(OCC(F)(F)F)c(F)c3)c(F)c12 [Example 569] |  |  |  |  | 500 to 2000 nM | 2 to 15 µM | 1 to 500 nM | > 15 µM |
| C[C@@H](Nc1ccccc1C(=O)O)c1cc(F)cc2c(=O)n(C)c(C34CC(CC(F)(F)F)(C3)C4)cc12 [Example 570] |  |  |  |  | 1 to 500 nM | > 15 µM | 1 to 500 nM | > 15 µM |
| C[C@@H](Nc1ccccc1C(=O)O)c1cc(F)cc2c(=O)n(C)c(C34CC(C(F)(F)C(F)(F)F)(C3)C4)cc12 [Example 571] |  |  |  |  | 1 to 500 nM | 2 to 15 µM | 1 to 500 nM | > 15 µM |
| C[C@@H](Nc1ccccc1C(=O)O)c1cc(F)cc2c(=O)n(C)c(-c3cnc(-c4cnc(C(F)(F)F)nc4)c(F)c3)cc12 [Example 574] |  |  |  |  | 1 to 500 nM | 2 to 15 µM | 1 to 500 nM | > 15 µM |
| C[C@@H](Nc1ccccc1C(=O)O)c1cc(F)cc2c(=O)n(C)c(-c3cnc(-c4ccnc(C(F)(F)F)n4)c(F)c3)cc12 [Example 575] |  |  |  |  | 2000 to 15000 nM | > 15 µM | 500 to 2000 nM | > 15 µM |
| Cc1nc(C(F)(F)F)c(F)cc1-c1ncc(-c2cc3c([C@@H](C)Nc4ccccc4C(=O)O)cc(F)cc3c(=O)n2C)cc1F [Example 576] |  |  |  |  | 1 to 500 nM | 2 to 15 µM | 1 to 500 nM | > 15 µM |
| C[C@@H](Nc1ccccc1C(=O)O)c1cc(F)cc2c(=O)n(C)c(C34CC(c5ccc(F)cc5F)(C3)C4)cc12 [Example 578] |  |  |  |  | 1 to 500 nM | 2 to 15 µM | 1 to 500 nM | 2 to 15 µM |
| C[C@@H](Nc1ccccc1C(=O)O)c1cc(F)cc2c(=O)n(C)c(-c3cnc(C4(CC(F)(F)F)CC4)nc3)cc12 [Example 579] |  |  |  |  | 1 to 500 nM | 2 to 15 µM | 1 to 500 nM | > 15 µM |
| C[C@@H](Nc1ccccc1C(=O)O)c1cc(F)cc2c(=O)n(C)c(C34CC(c5cnn(C(F)F)c5)(C3)C4)c(F)c12 [Example 580] |  |  |  |  | 1 to 500 nM | 2 to 15 µM | 1 to 500 nM | 2 to 15 µM |
| COc1ncc(-c2c(F)c3c([C@@H](C)Nc4ccccc4C(=O)O)cc(F)cc3c(=O)n2C)s1 [Example 581] |  |  |  |  | 1 to 500 nM | > 15 µM | 1 to 500 nM | > 15 µM |
| Cc1ncc(-c2c(F)c3c([C@@H](C)Nc4ccccc4C(=O)O)cc(F)cc3c(=O)n2C)s1 [Example 582] |  |  |  |  | 1 to 500 nM | > 15 µM | 1 to 500 nM | > 15 µM |
